Measurements reported in US20210220374A1, “METHODS OF TREATING TE[…]” (Clarus Therapeutics, Inc., priority 2013, published 2021).

Legend:
[1] = Example 3 four-week study of Formulation B (LOT-BB); assay type: in vivo, hypogonadal men
Experimental: The study was designed as an open-label, repeat dose, pharmacokinetic study.
For each subject, the “Day 28” serial PK sampling day was scheduled for Day 32 of the study. […] Doses were administered as capsules, with subjects instructed to take doses 30 minutes after initiation of meals (breakfast and dinner).

[2] = Contingency table classification of C(t) acceptance range as surrogate for Cavg; design: species or system hypogonadal men; conditions: for Percent of Subjects: C(t) in range / Percent of Subjects: C(t) too high / Percent of Subjects: C(t) too low / Percent of Subjects: Cavg in range & C(t) in range / Percent of Subjects: Cavg in range & C(t) too high / Percent of Subjects: Cavg in range & C(t) too low / Percent of Subjects: Cavg too high & C(t) too high / Percent of Subjects: Cavg too low & C(t) in range / Percent of Subjects: Cavg too low & C(t) too low / Percent of Subjects: Cavg too high & C(t) in range: Cavg 300-1000 ng/dL; for Percent of subjects: Cavg in Range F & C(t) in Range F (total of too high and too low): Cavg 300-1000
Description: For the contingency table approach, the number and percentage of subjects that fell into each of the following seven categories were enumerated, for each of the candidate time points, and for each candidate target range for Cavg, and for each candidate acceptance range for C(t). • 1. Subjects with Cavg within range and with C(t) within range • 2. Subjects with Cavg below range and with C(t) below range • 3. Subjects with Cavg above range and with C(t) above range • 4. Subjects with Cavg within range but with C(t) below range • 5. Subjects with Cavg within range but with C(t) above range • 6. Subjects with Cavg below range, but with C(t) within range • 7. Subjects with Cavg above range, but with C(t) within range
If one defines a value as being “within range” as positive, and being “outside of range” as negative, then Group 1 is subjects that are “true positives”, Groups 2 and 3 are “true negatives”, groups 4 and 5 are “false negatives”, and groups 6 and 7 are “false positives”. Groups, 1, 2 and 3 represent successful predictions because C(t) is an appropriate surrogate for Cavg; Groups 4, 5, 6 and 7 are prediction failures because C(t) is an inaccurate surrogate for Cavg.
Correlations and contingency table calculations were performed using built-in functions in the Excel module of Microsoft Office 2003 (Redmond, Wash.). Graphs were produced using the built-in charting capabilities of Excel.

[3] = C(1.5), C(t) acceptance 130-1110
[4] = C(6) alternate, C(t) acceptance 250-1700
[5] = targeted Cavg 300-1000 ng/dL, 200 mg T BID as TU

## CCCCCCCCCCC(=O)O[C@H]1CC[C@H]2[C@@H]3CCC4=CC(=O)CC[C@]4(C)[C@H]3CC[C@]12C [TU, testosterone undecanoate]
[1]; 200 mg T BID as TU
  Time to T steady-state: 5 to 7 days
[1]; 200 mg T BID as TU, 28 days
  Subjects with Cmax greater than 1500 ng/dL: 13.3%
[1]; 200 mg T BID as TU, 28 days, no dose adjustment
  Subjects with serum T Cavg within the normal range: 86.7%
[1]; after 28 days of treatment
  Endogenous serum T baseline concentration, mean: 108 ng/dL
[1]; after discontinuing treatment
  Time for DHT concentrations to return to pretreatment levels: ≤ 36 h
  Time for E2 concentrations to return to pretreatment levels: ≤ 36 h
[1]; in vivo
  Continued treatment required for maximal suppression of endogenous T production: 5 to 7 days
[1]; steady state
  E2 mean Cavg: 0.022 ng/mL
  E2 mean Cmin: 0.0155 ng/mL
[2]; C(0), C(t) acceptance 80-1000
  Percent of Subjects: C(t) in range: 87.8%
  Percent of Subjects: C(t) too high: C(t) too high 4.9%
  Percent of Subjects: C(t) too low: 7.3%
  Percent of Subjects: Cavg in range & C(t) in range: 75.6%
  Percent of Subjects: Cavg in range & C(t) too high: 2.4%
  Percent of Subjects: Cavg in range & C(t) too low: 2.4%
  Percent of Subjects: Cavg too high & C(t) too high: 2.4%
  Percent of Subjects: Cavg too low & C(t) in range: 7.3%
[2]; C(1), C(t) acceptance 130-1000
  Percent of Subjects: C(t) in range: 85.4%
  Percent of Subjects: C(t) too high: 2.4%
  Percent of Subjects: C(t) too low: 12.2%
  Percent of Subjects: Cavg in range & C(t) in range: 78.0%
  Percent of Subjects: Cavg in range & C(t) too high: 0.0%
  Percent of Subjects: Cavg in range & C(t) too low: 2.4%
  Percent of Subjects: Cavg too high & C(t) too high: 2.4%
  Percent of Subjects: Cavg too low & C(t) in range: 2.4%
  Percent of Subjects: Cavg too low & C(t) too low: 9.8%
[2]; [3]
  Percent of Subjects: C(t) in range: 90.2%
  Percent of Subjects: C(t) too high: 0.0%
  Percent of Subjects: C(t) too low: 9.8%
  Percent of Subjects: Cavg in range & C(t) in range: 80.5%
  Percent of Subjects: Cavg in range & C(t) too high: 0.0%
  Percent of Subjects: Cavg in range & C(t) too low: 0.0%
  Percent of Subjects: Cavg too high & C(t) in range: 7.3%
  Percent of Subjects: Cavg too high & C(t) too high: 0.0%
  Percent of Subjects: Cavg too low & C(t) in range: 2.4%
  Percent of Subjects: Cavg too low & C(t) too low: 9.8%
[2]; C(2), C(t) acceptance 150-1200
  Percent of Subjects: C(t) in range: 90.2%
  Percent of Subjects: C(t) too high: 0.0%
  Percent of Subjects: C(t) too low: 9.8%
  Percent of Subjects: Cavg in range & C(t) in range: 80.5%
  Percent of Subjects: Cavg in range & C(t) too high: 0.0%
  Percent of Subjects: Cavg in range & C(t) too low: 0.0%
  Percent of Subjects: Cavg too high & C(t) in range: 7.3%
  Percent of Subjects: Cavg too high & C(t) too high: 0.0%
  Percent of Subjects: Cavg too low & C(t) in range: 2.4%
  Percent of Subjects: Cavg too low & C(t) too low: 9.8%
[2]; C(3), C(t) acceptance 190-1450
  Percent of subjects: Cavg in Range F & C(t) in Range F (total of too high and too low): 7.3%
[2]; C(3), C(t) acceptance 190-1500
  Percent of Subjects: C(t) in range: 90.2%
  Percent of Subjects: C(t) too high: 0.0%
  Percent of Subjects: C(t) too low: 9.8%
  Percent of Subjects: Cavg in range & C(t) in range: 78.0%
  Percent of Subjects: Cavg in range & C(t) too high: 0.0%
  Percent of Subjects: Cavg in range & C(t) too low: 2.4%
  Percent of Subjects: Cavg too high & C(t) in range: 7.3%
  Percent of Subjects: Cavg too high & C(t) too high: 0.0%
  Percent of Subjects: Cavg too low & C(t) in range: 4.9%
  Percent of Subjects: Cavg too low & C(t) too low: 7.3%
[2]; C(4), C(t) acceptance 250-1700
  Percent of Subjects: C(t) in range: 82.9%
  Percent of Subjects: C(t) too high: 2.4%
  Percent of Subjects: C(t) too low: 14.6%
  Percent of Subjects: Cavg in range & C(t) in range: 75.6%
  Percent of Subjects: Cavg in range & C(t) too high: 0.0%
  Percent of Subjects: Cavg in range & C(t) too low: 4.9%
  Percent of Subjects: Cavg too high & C(t) in range: 4.9%
  Percent of Subjects: Cavg too high & C(t) too high: 2.4%
  Percent of Subjects: Cavg too low & C(t) in range: 2.4%
  Percent of Subjects: Cavg too low & C(t) too low: 9.8%
  Percent of subjects: Cavg in Range F & C(t) in Range F (total of too high and too low): 12.2%
[2]; C(5), C(t) acceptance 250-1400
  Percent of Subjects: C(t) in range: 82.9%
  Percent of Subjects: C(t) too high: 4.9%
  Percent of Subjects: C(t) too low: 12.2%
  Percent of Subjects: Cavg in range & C(t) in range: 75.6%
  Percent of Subjects: Cavg in range & C(t) too high: 2.4%
  Percent of Subjects: Cavg in range & C(t) too low: 2.4%
  Percent of Subjects: Cavg too high & C(t) in range: 4.9%
  Percent of Subjects: Cavg too high & C(t) too high: 2.4%
  Percent of Subjects: Cavg too low & C(t) in range: 2.4%
  Percent of Subjects: Cavg too low & C(t) too low: 9.8%
  Percent of subjects: Cavg in Range F & C(t) in Range F (total of too high and too low): 12.2%
[2]; [4]
  Percent of Subjects: C(t) in range: 90.2%
  Percent of Subjects: C(t) too high: 0.0%
  Percent of Subjects: C(t) too low: 9.8%
  Percent of Subjects: Cavg in range & C(t) in range: 80.5%
  Percent of Subjects: Cavg in range & C(t) too high: 0.0%
  Percent of Subjects: Cavg in range & C(t) too low: 0.0%
  Percent of Subjects: Cavg too high & C(t) in range: 7.3%
  Percent of Subjects: Cavg too high & C(t) too high: 0.0%
  Percent of Subjects: Cavg too low & C(t) in range: 2.4%
  Percent of Subjects: Cavg too low & C(t) too low: 9.8%
  Percent of subjects: Cavg in Range F & C(t) in Range F (total of too high and too low): 9.8%
[2]; C(6), C(t) acceptance 250-1100
  Percent of Subjects: C(t) in range: 75.6%
  Percent of Subjects: C(t) too high: 14.6%
  Percent of Subjects: C(t) too low: 9.8%
  Percent of Subjects: Cavg in range & C(t) in range: 73.2%
  Percent of Subjects: Cavg in range & C(t) too high: 7.3%
  Percent of Subjects: Cavg in range & C(t) too low: 0.0%
  Percent of Subjects: Cavg too high & C(t) in range: 0.0%
  Percent of Subjects: Cavg too high & C(t) too high: 7.3%
  Percent of Subjects: Cavg too low & C(t) in range: 2.4%
  Percent of Subjects: Cavg too low & C(t) too low: 9.8%
  Percent of subjects: Cavg in Range F & C(t) in Range F (total of too high and too low): 17.1%
[2]; C(8), C(t) acceptance 200-1300
  Percent of Subjects: C(t) in range: 95.1%
  Percent of Subjects: C(t) too high: 4.9%
  Percent of Subjects: C(t) too low: 0.0%
  Percent of Subjects: Cavg in range & C(t) in range: 80.5%
  Percent of Subjects: Cavg in range & C(t) too high: 0.0%
  Percent of Subjects: Cavg in range & C(t) too low: 0.0%
  Percent of Subjects: Cavg too high & C(t) in range: 2.4%
  Percent of Subjects: Cavg too high & C(t) too high: 4.9%
  Percent of Subjects: Cavg too low & C(t) in range: 12.2%
  Percent of Subjects: Cavg too low & C(t) too low: 0.0%
  Percent of subjects: Cavg in Range F & C(t) in Range F (total of too high and too low): 4.9%
[2]; C(12), C(t) acceptance 100-680
  Percent of Subjects: C(t) in range: 92.7%
  Percent of Subjects: C(t) too high: 4.9%
  Percent of Subjects: C(t) too low: 2.4%
  Percent of Subjects: Cavg in range & C(t) in range: 80.5%
  Percent of Subjects: Cavg in range & C(t) too high: 0.0%
  Percent of Subjects: Cavg in range & C(t) too low: 0.0%
  Percent of Subjects: Cavg too high & C(t) in range: 2.4%
  Percent of Subjects: Cavg too high & C(t) too high: 4.9%
  Percent of Subjects: Cavg too low & C(t) in range: 9.8%
  Percent of Subjects: Cavg too low & C(t) too low: 2.4%
  Percent of subjects: Cavg in Range F & C(t) in Range F (total of too high and too low): 7.3%
[2]; [5]
  Percent of Subjects: Cavg in range: 80.5%
  Percent of Subjects: Cavg to low: 12.2%
  Percent of Subjects: Cavg too high: 7.3%
